The numbers were not newly measured in US12397030B2, “Polyphenol compositions and uses thereof” (METAGENICS, INC., priority 2019, dated 2025), which cites them from elsewhere.

Molecules are shown by their SMILES. A value given as a limit tells only on which side of the number the result lay.

Series [1] deals with ATP-binding cassette transporter A1 (ABCA1). Particulars: enhances reverse cholesterol transport.
The conditions of series [2]: humans.

As for `O=c1oc2cc(O)ccc2c2ccccc12` [urolithin B], the “ABCA1 expression in macrophages” value in series [1] was “upregulation”.

Turning to `O=c1oc2c(O)c(O)cc3c(=O)oc4c(O)c(O)cc1c4c23` [ellagic acid], in series [2], the “time by which no longer detected” value was no more than 5 h and the “time to appearance following consumption” value was roughly 30 min. Also, in series [2] (after consumption), the elimination half-life is 42.6 min.
